Experimental data reported in patent US10597388B2, “Pyridazinone herbicides” (FMC CORPORATION, priority 2014, dated 2020).

Legend:
Format in all cases: in vivo
[1] = system: barnyardgrass (Echinochloa crus-galli); experiment: Test C greenhouse herbicide test, pre- and postemergence
Summary of the method: (§1)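 Seeds sown in loam–sand blend treated preemergence; plants in peat-based medium sprayed postemergence at 2–18 cm (1- to 4-leaf stage); chemicals in non-phytotoxic solvent with surfactant. Greenhouse 13–15 d, then visual rating versus controls on 0–100 scale (0 no effect, 100 complete control).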

[2] = system: blackgrass (Alopecurus myosuroides); experiment: as above
Summary of the method: as §1

[3] = system: corn (Zea mays); experiment: as above
Summary of the method: as §1

[4] = system: crabgrass, large (large crabgrass, Digitaria sanguinalis); experiment: as above
Summary of the method: as §1

[5] = system: foxtail, giant (giant foxtail, Setaria faberii); experiment: as above
Summary of the method: as §1

[6] = system: johnsongrass (Sorghum halepense); experiment: as above
Summary of the method: as §1

[7] = system: lambsquarters (Chenopodium album); experiment: as above
Summary of the method: as §1

[8] = system: morningglory (Ipomoea coccinea); experiment: as above
Summary of the method: as §1

[9] = system: pigweed (Amaranthus retroflexus); experiment: as above
Summary of the method: as §1

[10] = system: ragweed (common ragweed, Ambrosia elatior); experiment: as above
Summary of the method: as §1

[11] = system: ryegrass, Italian (Italian ryegrass, Lolium multiflorum); experiment: as above
Summary of the method: as §1

[12] = system: soybean (Glycine max); experiment: as above
Summary of the method: as §1

[13] = system: waterhemp (common waterhemp, Amaranthus rudis); experiment: as above
Summary of the method: as §1

[14] = system: wheat (winter wheat, Triticum aestivum); experiment: as above
Summary of the method: as §1

[15] = system: kochia (Kochia scoparia); experiment: Test C greenhouse herbicide test, postemergence
Summary of the method: (§2)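 Greenhouse postemergence spray on plants 2–18 cm tall; response judged visually after 13–15 d relative to untreated controls using a 0 (none) to 100 (full control) scale.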

[16] = system: oat, wild (wild oat, Avena fatua); experiment: Test C greenhouse herbicide test, postemergence
Summary of the method: as §2

[17] = Postemergence, 31 g ai/ha, 0 to 100 scale (0 no effect, 100 complete control)
[18] = Postemergence, 125 g ai/ha, scale 0 to 100, 0 is no effect, 100 is complete control
[19] = Postemergence, 250 g ai/ha, scale 0 to 100, 0 no effect, 100 complete control, 13 to 15 d
[20] = postemergence, 62 g ai/ha, scale 0 to 100, 0 no effect, 100 complete control

**Q.** `Cc1ccc2ccccc2c1-c1c(O)cnn(C)c1=O` [Compound 56] was tested. Which “Barnyardgrass plant response rating” value [1, 17] did it give?
**A.** 0

**Q.** What about the “Plant response rating, Barnyardgrass” value [1, 18] of the same compound?
**A.** 5

**Q.** What about the “Plant response rating, Barnyardgrass” value [1, 19] of the same compound?
**A.** 10

**Q.** What about the “Barnyardgrass plant response rating” value [1, 20] of the same compound?
**A.** 5

**Q.** And the “Blackgrass plant response rating” value [2, 17]?
**A.** 0

**Q.** And the “Plant response rating, Blackgrass” value [2, 18]?
**A.** 5

**Q.** What about the “Plant response rating, Blackgrass” value [2, 19] of the same compound?
**A.** 40

**Q.** And the “Blackgrass plant response rating” value [2, 20]?
**A.** 5

**Q.** And the “Corn plant response rating” value [3, 17]?
**A.** 0

**Q.** And the “Plant response rating, Corn” value [3, 18]?
**A.** 0

**Q.** And the “Plant response rating, Corn” value [3, 19]?
**A.** 0

**Q.** And the “Corn plant response rating” value [3, 20]?
**A.** 0

**Q.** And the “Crabgrass, Large plant response rating” value [4, 17]?
**A.** 0

**Q.** What about the “Plant response rating, Crabgrass, Large” value [4, 18] of the same compound?
**A.** 5

**Q.** And the “Plant response rating, Crabgrass, Large” value [4, 19]?
**A.** 20

**Q.** What about the “Crabgrass, Large plant response rating” value [4, 20] of the same compound?
**A.** 5

**Q.** What about the “Foxtail, Giant plant response rating” value [5, 17] of the same compound?
**A.** 0

**Q.** What about the “Plant response rating, Foxtail, Giant” value [5, 18] of the same compound?
**A.** 0

**Q.** What about the “Plant response rating, Foxtail, Giant” value [5, 19] of the same compound?
**A.** 50

**Q.** And the “Foxtail, Giant plant response rating” value [5, 20]?
**A.** 0

**Q.** And the “Johnsongrass plant response rating” value [6, 17]?
**A.** 0

**Q.** What about the “Plant response rating, Johnsongrass” value [6, 18] of the same compound?
**A.** 5

**Q.** What about the “Plant response rating, Johnsongrass” value [6, 19] of the same compound?
**A.** 10

**Q.** What about the “Johnsongrass plant response rating” value [6, 20] of the same compound?
**A.** 0

**Q.** What about the “Lambsquarters plant response rating” value [7, 17] of the same compound?
**A.** 0

**Q.** And the “Plant response rating, Lambsquarters” value [7, 18]?
**A.** 85

**Q.** And the “Plant response rating, Lambsquarters” value [7, 19]?
**A.** 85

**Q.** And the “Lambsquarters plant response rating” value [7, 20]?
**A.** 50

**Q.** What about the “Morningglory plant response rating” value [8, 17] of the same compound?
**A.** 35

**Q.** And the “Plant response rating, Morningglory” value [8, 18]?
**A.** 50

**Q.** What about the “Plant response rating, Morningglory” value [8, 19] of the same compound?
**A.** 50

**Q.** What about the “Morningglory plant response rating” value [8, 20] of the same compound?
**A.** 50

**Q.** And the “Pigweed plant response rating” value [9, 17]?
**A.** 80

**Q.** What about the “Plant response rating, Pigweed” value [9, 18] of the same compound?
**A.** 85

**Q.** And the “Plant response rating, Pigweed” value [9, 19]?
**A.** 90

**Q.** And the “Pigweed plant response rating” value [9, 20]?
**A.** 75

**Q.** And the “Ragweed plant response rating” value [10, 17]?
**A.** 0

**Q.** And the “Plant response rating, Ragweed” value [10, 18]?
**A.** 60

**Q.** What about the “Plant response rating, Ragweed” value [10, 19] of the same compound?
**A.** 60

**Q.** And the “Ragweed plant response rating” value [10, 20]?
**A.** 0

**Q.** And the “Ryegrass, Italian plant response rating” value [11, 17]?
**A.** 40

**Q.** And the “Plant response rating, Ryegrass, Italian” value [11, 18]?
**A.** 65

**Q.** And the “Plant response rating, Ryegrass, Italian” value [11, 19]?
**A.** 90

**Q.** What about the “Ryegrass, Italian plant response rating” value [11, 20] of the same compound?
**A.** 60

**Q.** And the “Soybean plant response rating” value [12, 17]?
**A.** 0

**Q.** And the “Plant response rating, Soybean” value [12, 18]?
**A.** 0

**Q.** And the “Plant response rating, Soybean” value [12, 19]?
**A.** 0

**Q.** And the “Soybean plant response rating” value [12, 20]?
**A.** 0

**Q.** And the “Waterhemp plant response rating” value [13, 17]?
**A.** 55

**Q.** What about the “Plant response rating, Waterhemp” value [13, 18] of the same compound?
**A.** 95

**Q.** What about the “Plant response rating, Waterhemp” value [13, 19] of the same compound?
**A.** 90

**Q.** What about the “Waterhemp plant response rating” value [13, 20] of the same compound?
**A.** 75

**Q.** And the “Wheat plant response rating” value [14, 17]?
**A.** 0

**Q.** And the “Plant response rating, Wheat” value [14, 18]?
**A.** 5

**Q.** What about the “Plant response rating, Wheat” value [14, 19] of the same compound?
**A.** 5

**Q.** And the “Wheat plant response rating” value [14, 20]?
**A.** 0

**Q.** What about the “Kochia plant response rating” value [15, 17] of the same compound?
**A.** 70

**Q.** What about the “Plant response rating, Kochia” value [15, 18] of the same compound?
**A.** 90

**Q.** And the “Plant response rating, Kochia” value [15, 19]?
**A.** 100

**Q.** And the “Kochia plant response rating” value [15, 20]?
**A.** 90

**Q.** And the “Oat, Wild plant response rating” value [16, 17]?
**A.** 5

**Q.** And the “Plant response rating, Oat, Wild” value [16, 18]?
**A.** 20

**Q.** What about the “Plant response rating, Oat, Wild” value [16, 19] of the same compound?
**A.** 40

**Q.** And the “Oat, Wild plant response rating” value [16, 20]?
**A.** 10
